Values quoted from earlier work, collected in patent US20080279948A1, “Treatment of Asthma and Copd Using Triple-Combination Therapy” (NXP B.V., priority 2005, published 2008).

Key:
[1] = aerosol formulation, single administration of a metered dose, asthma
[2] = controlled release formulation for pulmonary delivery

SMILES: C[N+]1(C)CCC(OC(=O)C(O)(c2ccccc2)C2CCCC2)C1.[Br-] (racemic) [glycopyrrolate, 3-[(Cyclopentyl-hydroxyphenylacetyl)oxy]-1,1-dimethylpyrrolidinium bromide]
- duration of bronchodilation [1]: up to 12 hours
- period over which the antimuscarinic agent exerts its pharmacological effect [2]: greater than 12 hours
